Results from US12465626B2, “Traditional Chinese medicine composition with improving cognition effect, preparation method thereof and traditional Chinese medicine preparation” (Chenland Nutritionals, Inc., priority 2019, dated 2025).

Key:
Assay type in all cases: in vivo
[1] = tested on: mice; test: Novel object recognition test of mice
Method: Adaptation period: on the first day, the mice were placed in the test room for 1 hour of environmental adaptation and familiarity, and then placed in the open field box for 20 minutes (there was no object in the box), so as to eliminate the impact of the open field box on the tested mice. After the experiment of each mouse, the open field box was cleaned with 75% ethanol.
Familiarization period: on the second day (24 hours after the adaptation period), the mice were placed in the test room for 1 hour of environmental adaptation and familiarization, then two yellow cylindrical bottles of the same size and texture were placed at the left and right ends of the same side of the open field box as familiar objects, and then the mouse was put into the box with its back towards the objects. The mouse's exploration of the objects within 5 min was recorded (timing standard: the exploration time within 2 cm of the mouse's nose or mouth from the object, and its lying on the objects or just walking around the objects was not included). […]
Test period: 2 h after the familiarization period, replace a yellow cylindrical bottle in the open field box was replaced with a green conical bottle of the same size as a strange object, and then the mouse was put into the box with its back towards the objects. […] The recognition index (RI) was calculated: RI=Tn/(Tn+Tf). […]

[2] = tested on: mice; test: Morris water maze test, space exploration experiment; conditions: exploration period
Method: (§1) Statistical methods: the data were analyzed by GraphPad Prism 7.01 software (GraphPad Software, Inc., San Diego, California, USA). Before the parameter test of all group tests, the data were tested by normality test (Kolmogorov-Smirnov test) and variance homogeneity test (Levene test). Except for the escape latency in water maze, all test parameters were compared between groups by non paired T-test (single tail), and the test level was set as p<0.05. The escape latency in water maze was compared between two groups by two-way analysis of variance. The post test was conducted by Sidak's multiple comparisons test, and the test level was set as p<0.05.
(§2) Implementation method: the test procedure included two parts: directional navigation and space exploration. A total of 5 consecutive days were tested. The first part was the directional navigation experiment, which was tested on mice for 4 days, and the second part was the space exploration experiment, which was tested for 1 day. The melanin edible toner was […] to hide the platform, and it was kept in sharp contrast with the color of mice during camera shooting for easy tracking. The platform was located 0.8 cm below the water surface and the water depth was 21 cm. It was located in the NW quadrant. The water temperature in the water maze was maintained at a constant temperature of 22-24° C. with a heating rod.
Space exploration experiment: the platform was removed and each mouse was tested once for 60 s. The SE quadrant was selected and the mouse was gently put into the water facing the edge of the pool wall. The spatial memory ability of the animal was evaluated by the number of times the animal crossed the original platform position within 60 s, the run ratio and time ratio of the original platform quadrant (i.e. the ratio of the run and time of the animal's original platform quadrant to the total run and time).

[3] = tested on: mice; test: Morris water maze test, directional navigation experiment; conditions: max 60 s
Method: as §1, §2
Directional navigation experiment: each mouse was trained 4 times a day, with an interval of 15-20 min. During the test, the water entry point was selected in a semi random way each time. The experimenter held the mouse by hand, made it face the pool wall, and gently put it into the water. In each training, if the mouse could find the platform within 60 s, and the time spent on the platform was more than 2 S, it was regarded as the sign of successful platform search. The time spent by the mice from entering the water to successful platform search was recorded as the latency. […] After the mice boarded the platform, the mice were kept on the platform for 10 s, so that they could carry out spatial learning and memory according to the reference objects of the four quadrants, and the tension of the mice were reduced. The average value of daily latency was calculated to evaluate the acquisition ability of animals' spatial memory.

[4] = tested on: mice; test: Step-down test of mice (scopolamine hydrobromide)
Method: as §1
Test method: the grouping, sample preparation and modeling of mouse step-down test were the same as above. At the beginning of the test, the step-down training was carried out, where the adaptation was carried out for 3 min and then the power on training was carried out for 300 s. The test was conducted after 24 hours. The drug was administered 1 hour before the test, and scopolamine hydrobromide and normal saline were injected intraperitoneally 15-20 minutes before the test. Then the mouse was put on the platform and the latency of jumping off the platform for the first time and the number of errors (getting off the platform) within 300 s were recorded.

[5] = after intragastric administration

C/C=C1\[C@H]2C=C(C)C[C@]1(N)c1ccc(=O)[nH]c1C2 [Positive drug, huperzine-A]
Recognition index (x[…]SE) ([1]; RI=Tn/(Tn+Tf), intragastric, dose (crude drug) 1.002 g/kg (Embodiment 1, Comparative examples 1, 2), 1.200 g/kg (Comparative example 3), 0.67 tablets/kg (positive drug), model group 0.4180, control 0.5715): 0.5341 ± 0.0428
Recognition index compared with the model group [1, 5]: increased significantly
Stay time in target quadrant/s (x[…]SE) ([2]; 60 s, model group 14.15, control 17.30): 15.04 ± 0.9555 s
Number of crossing platform (x[…]SE) ([2]; within 60 s, model group 1.308, control 3.125): 2.786 ± 0.4591
Escape latency compared with the model group [2, 5]: significantly shorter
Number of crossing the platform compared with the model group [2, 5]: significantly higher
Escape latency/s (x[…]SE) ([2]; doses as Table 5, model group 39.27, control 20.05): 22.91 ± 3.922 s
Run distance of target quadrant/mm (x[…]SE) ([2]; model group 2373, control 2821): 2867 ± 207.6 mm
Escape latency First day (s) (x[…]SE) ([3]; first day, doses as Table 4, model group 53.2): 52.7 ± 2.29 s
Escape latency Fourth day (s) (x[…]SE) ([3]; fourth day, model group 47.7): 43.5 ± 2.83 s
Escape latency Second day (s) (x[…]SE) ([3]; second day, model group 44.2): 44.5 ± 2.80 s
Escape latency Third day (s) (x[…]SE) ([3]; third day, model group 42.4): 43.6 ± 2.91 s
Step-down latency compared with the model group [4, 5]: significantly longer
Step-down number of errors compared with the model group [4, 5]: significantly lower
Number of errors (x[…]SE) ([4]; errors within 300 s, doses as Table 3, model group 2.714, control 1.375): 1.833 ± 0.3445
Latency/s ([4]; latency of jumping off the platform, max 300 s, drug 1 hour before test, doses as Table 2, model group 42.01, control 100.3): 94.12 ± 29.48 s
